The target of test [1] is T1, SMNDC1 Tudor domain (Homo sapiens, UniProt O75940).
T1 sequence (O75940 65-128): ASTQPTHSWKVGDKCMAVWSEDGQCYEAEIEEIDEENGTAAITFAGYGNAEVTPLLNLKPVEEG
The test is described as follows: AlphaScreen, SMNDC1 Tudor domain / sDMA-peptide interaction. Particulars: for selectivity between SMNDC1 and SMN: AlphaScreen SMNDC1 vs SMN; for effect of the structural modification on potency / IC50: structure-activity relationships around compound 1.
Description: To pharmacologically perturb SMNDC1 function, we set out to identify small molecule inhibitors of SMNDC1’s Tudor domain based on perturbing its interaction with a dimethylarginine peptide. To establish an AlphaScreen[50], we coupled donor beads to purified SMNDC1’s (or SMN’s) Tudor domain via a His-Tag and acceptor beads to a biotinylated peptide corresponding to the C-terminal region of the Small nuclear ribonucleoprotein Sm D3 containing four sDMAs (Fig. 4a). […] To identify ideal concentrations for screening, we performed a cross-titration of Tudor domains and binding peptides (Supplementary Fig. 3b).
(§1) The AlphaScreen was conducted in 20 mM sodium phosphate pH 6.5, 50 mM NaCl, Tween 0.01%, BSA 0.1%. Protein concentration was optimized for each batch of purified protein. Optimal concentration was chosen at the lowest concentration with ~80% of maximum signal. […] In the first step, 10 µl of the protein solution containing either SMNDC1’s or SMN’s Tudor domain coupled to a 6xHis-Tag were distributed to 384-well plates pre-spotted with compounds and controls, shaken and incubated for 30 min at RT. Afterwards, 10 µl of peptide solution was added to each well and incubated for 1 h at RT. Finally, 5 µl of a solution containing both Streptavidin Donor and nickel chelate (Ni-NTA) Acceptor beads was added and again incubated for 1 h at RT.
Category Parameter Description
Assay Type of assay In vitro AlphaScreen / luminescence proximity
Target Tudor domain of SMNDC1
Primary measurement Decrease in luminescence signal reflecting
disruption of heterodimeric complex between
SMNDC1-Tudor domain and a peptide
corresponding to the C-terminus of Small nuclear
ribonucleoprotein Sm D3 containing 4 sDMAs
Key reagents AlphaScreen no-wash assay kit containing
Streptavidin Donor beads and nickel chelate (Ni-
NTA) AlphaScreen Acceptor beads (PerkinElmer
Assay protocol Described in Methods section
Screen Format PerkinElmer OptiPlate-384 well plate
Concentration(s) tested Typically 10 μM (0.1% DMSO)
Plate controls 32 positive control wells (Mitoxantrone, quencher),
32 negative control wells (DMSO)
Reagent/ compound dispensing system Echo 520 Liquid Handler Multidrop™ Combi
Normalization Raw signal was normalized plate-specifically by
correcting row and column-specific mean signals to
the mean signal of the entire plate, each after
removing the highest and lowest 25% of values. Raw
signal was then converted to percent of control
signal, but linear regression to plate-specific mean
signal of DMSO wells (set to 100 percent of control)
and positive control wells (set to 0% of control), after
outlier removal using a Grubbs test.
unspecific quenchers), Secondary screen (with

Test [2] deals with SMN Tudor domain (Homo sapiens, UniProt Q16637). The test is described as follows: AlphaScreen, SMN Tudor domain / sDMA-peptide interaction.
Protocol: To establish an AlphaScreen[50], we coupled donor beads to purified SMNDC1’s (or SMN’s) Tudor domain via a His-Tag and acceptor beads to a biotinylated peptide corresponding to the C-terminal region of the Small nuclear ribonucleoprotein Sm D3 containing four sDMAs (Fig. 4a). […] To identify ideal concentrations for screening, we performed a cross-titration of Tudor domains and binding peptides (Supplementary Fig. 3b).
as §1
In test [3] the test system is SMNDC1-GFP αTC1 clones. Nature of the test: Live imaging of endogenously tagged SMNDC1-GFP. Type of test: cell-based, mouse. From the text:
Cell lines with fluorescent tags in the endogenous intron loci of different genes were generated as described in Serebrenik et al., and Reicher et al.[39],[74]. Cells were transiently transfected using Avalanche-Everyday Transfection Reagent with three plasmids in parallel: (1) the donor plasmid containing the artificial intron with splice acceptor and splice donor site, the fluorescent tag GFP or RFP, and a possible correction for the frame of the targeted intron, (2) a pX330 backbone containing Cas9 and the gRNA against the donor plasmid, and (3) a plasmid expressing the gRNA against the target intron (see table below). After 3–5 days, GFP- and/or RFP-positive cells were sorted on a SONY SH800 Cell Sorter to get fluorescent single cell clones. Clones were validated for the correct integration of the intron-tag via comparison of live cell images to publicly available or in-house IF images, genomic DNA PCR amplification of the respective loci, and western blots with antibodies against the target protein and/or the fluorescent tag.
Cells were imaged on a PerkinElmer Opera Phenix automated microscope with 500 ms exposure time in either GFP or RFP channel, or on a Zeiss LSM 980 microscope. For condition-independent identification nuclear markers such as Hoechst or DRAQ5^TM were used.
Images were analyzed using the high-content image acquisition and analysis software Harmony® 4.9 developed by PerkinElmer. First, nuclei were identified in the channel of the nuclear marker (DAPI/ Hoechst/ DRAQ5^TM) (with Method C, Common Threshold 0.75, Area > 10 µm^2). After the identification of nuclei, their corresponding cytoplasm was also identified using the respective nucleic acid marker (with Method A, Individual Threshold 0.15). Even though the highest staining of these nuclear markers is obviously detected in the nucleus they still produce a significant staining of the cytoplasm above background. After defining the respective cell areas, mean intensity in the different channels was measured. Finally, spots were identified with the according “Spots” algorithm (with Method A, Relative Spot Intensity > 0.053, Splitting Sensitivity: 1.0).

Sequence of SMN Tudor domain (Q16637 84-147): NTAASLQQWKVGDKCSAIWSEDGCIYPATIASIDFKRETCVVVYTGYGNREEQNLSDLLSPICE

In general, IC50 refers to the concentration that inhibits the measured activity by half. A high value points to a need for much substance. As for `O=C(Nc1nc(-c2ccccn2)cs1)c1ccc(S(=O)(=O)N2CCOCC2)cc1` [Fig. 4e], the figures for the half-inhibitory concentration (IC50) in test [1] and in test [2] were 0.77 µM and 0.64 µM, respectively.

With `O=C(Nc1nc(-c2cccs2)cs1)c1ccc(S(=O)(=O)N2CCCC2)cc1` [compound 7], the IC50 in test [1] and in test [2] was greater than 50 µM in each case.

Turning to `CCN(CC)S(=O)(=O)c1ccc(C(=O)Nc2nc(-c3cccnc3)cs2)cc1` [compound 3], the IC50 in test [1] and in test [2] was greater than 50 µM each time.

Regarding `CCc1sc(NC(=O)c2ccc(S(=O)(=O)N(C)C)cc2)nc1-c1ccccn1` [compound 11], the 50% inhibitory concentration (IC50) in test [1] is 1.4 µM; in test [2], 3.52 µM.

As to `N=C(N)Nc1nc(-c2ccccn2)cs1` [compound 19], the IC50 turned out to be 14.5 µM in test [1] and 13.2 µM in test [2].

Consider `CC(C)(C)CNC(=O)c1ccc(C(=O)Nc2nc(-c3ccccn3)cs2)cc1` [compound 25], for which the 50% inhibitory concentration (IC50) amounted to 1.47 µM in test [1] and 9.82 µM in test [2]. Also, the “selectivity between SMNDC1 and SMN” value in test [1] is “increased selectivity for SMNDC1 over SMN”.

`N#Cc1cccc(C(=O)Nc2nc(-c3ccc[nH]3)cs2)c1` [compound 8]: in test [1], inhibition was half-maximal at 4.05 µM (IC50) and the “effect of the structural modification on potency / IC50” value (“effect … on potency / IC50” for short) is listed as “some loss of potency”. Moreover, half-maximal inhibition in test [2] (IC50) was put at 8.24 µM.

In the case of `CCn1ccc(C(=O)Nc2nc(-c3ccccn3)cs2)n1` [compound 21], the IC50 in test [1] turned out to be 1.09 µM; in test [2], 1.16 µM.

Consider `O=C(O)c1ccc(C(=O)Nc2nc(-c3ccccn3)cs2)cc1` [compound 26], for which the results for the IC50 in test [1] and in test [2] were 1.1 µM and 3.38 µM, respectively.

Take `CCOC(=O)c1csc(NC(=O)c2ccc(S(=O)(=O)N(C)C)cc2)n1` [compound 9]: in test [1], the IC50 is greater than 50 µM and the “effect … on potency / IC50” value was “complete loss of activity”. In addition, the IC50 in test [2] is greater than 50 µM. Besides, in test [3] (50 µM, 12–16 h), the “SMNDC1-GFP spots within the nucleus” value is reported as “not observed” and the “SMNDC1 within the nucleus (nuclear SMNDC1-GFP)” value is “not observed”.

As to `CCc1ccccc1NC(=O)c1cccc2c1C(=O)N(c1ccc(OC)cc1)C2` [Fig. 4i], the IC50 in test [1] is 1.4 µM; in test [2], 3.9 µM.

For `O=C(Nc1nc(-c2ccccn2)cs1)c1ccc(-n2cnnn2)cc1` [compound 27], the results for the IC50 in test [1] and in test [2] were 0.73 µM and 1.23 µM, respectively.

Regarding `Cc1ccc(-c2csc(NC(=O)c3ccc(S(=O)(=O)N4CCCC4)cc3)n2)o1` [compound 6], the IC50 amounted to 33.7 µM in test [1] and 29.4 µM in test [2].

Consider `OCCCCCCO` [1,6-hexanediol, reference compound], for which, in test [3] (live cells, 2.5% or 5%), the “focal localization of SMNDC1-GFP within the nucleus” value was “losing its focal localization within the nucleus”.

With `CC(C)(C)OC(=O)NCCNC(=O)c1ccc(C(=O)Nc2nc(-c3ccccn3)cs2)cc1` [compound 28], in test [2], the IC50 turned out to be 15.4 µM. Besides, in test [3] (double-tagged SMNDC1-GFP SRRM2-RFP αTC1-clone, 50/25/12.5/6.25/3.125 µM), the “effects on SMNDC1 and SRRM2 localization” value is “could confirm the effects observed for the non-selective compound 1”.

Turning to `Cc1ccc(C(=O)Nc2nc(-c3ccccn3)cs2)o1` [compound 22], the half-inhibitory concentration (IC50) worked out at 0.47 µM in test [1] and 0.9 µM in test [2].

For the molecule `CN(C)S(=O)(=O)c1ccc(C(=O)Nc2nc(-c3ccncc3)cs2)cc1` [compound 4], the IC50 in test [1] is 9.56 µM; in test [2], 3.03 µM.

As for `O=C(Nc1nc(-c2ccccn2)cs1)C1CC1` [compound 20], the figures for the IC50 in test [1] and in test [2] were 2.12 µM and 2.93 µM, respectively.

For the molecule `CN(C)S(=O)(=O)c1ccc(C(=O)Nc2nc(-c3ccccn3)c(Br)s2)cc1` [compound 12], the IC50 turned out to be 1.37 µM in test [1] and 3.84 µM in test [2].

With `Cc1cc(C)n2c(Nc3ccccc3C)c(-c3ccccn3)nc2n1` [Fig. 4k], the half-maximal inhibitory concentration (IC50) amounted to 1.1 µM in test [1] and 1.2 µM in test [2].

Take `Cc1ccnc2nc(C(=O)Nc3nc(-c4ccccn4)cs3)nn12` [compound 24]: the IC50 turned out to be 0.81 µM in test [1] and 1.35 µM in test [2].

With `Cc1sc(NC(=O)c2ccc(S(=O)(=O)N(C)C)cc2)nc1-c1ccccn1` [compound 10], the IC50 in test [1] was 0.45 µM; in test [2], 1.26 µM. Besides, in test [1], the “effect … on potency / IC50” value was “without loss of potency”.

In the case of `O=S(=O)(Nc1nc(-c2ccccn2)cs1)c1ccccc1` [compound 18], the figures for the IC50 in test [1] and in test [2] were 1 µM and 2.55 µM, respectively.

For `COc1ccccc1-c1csc(NC(=O)c2ccc(S(=O)(=O)N(C)C)cc2)n1` [compound 5], the IC50 is 0.92 µM in test [1] and 1.7 µM in test [2].

Take `COc1ccc(CCNc2nc(-c3ccccn3)cs2)cc1OC` [compound 17]: the figures for the half-inhibitory concentration (IC50) in test [1] and in test [2] were 1.42 µM and 2 µM, respectively.

As for `Nc1ncc(-c2ccccn2)s1` [compound 15], in test [1], the IC50 is greater than 50 µM; the “selectivity between SMNDC1 and SMN” value is “preferentially inhibited SMN over SMNDC1”; the “effect … on potency / IC50” value is listed as “significant loss of activity”. This molecule gave an IC50 in test [2] of 15.2 µM.

On to `CC1NC(=O)NC1CCCCCC(=O)OCC(=O)c1ccccc1` (centres unmarked) [Fig. 4h], for which the IC50 was determined as 0.19 µM in test [1] and 4 µM in test [2].

As for `Nc1nc(-c2ccccn2)co1` [compound 16], the IC50 in test [1] was 20.7 µM; in test [2] it was greater than 50 µM. Also, in test [1] (thiazole replaced with analogous oxazole), the drop in potency is reported as 40 fold.

Regarding `COc1ccc(Cc2nnc(NC(=O)Cc3cccs3)s2)cc1OC` [Fig. 4g], the figures for the IC50 in test [1] and in test [2] were 2.3 µM and 5.8 µM, respectively.

Take `Nc1csc(-c2ccccn2)n1` [compound 14]: the IC50 in test [1] is 1.78 µM; in test [2], 5.35 µM.

The record behind these values is PMC10432564, “Pharmacological perturbation of the phase-separating protein SMNDC1” (Nature Communications, 2023).
